Test results as given in paper PMC11327196, “A phase 1 study to assess the absolute bioavailability, mass balance, pharmacokinetics, metabolism, and excretion of [^14C]-mobocertinib, an oral inhibitor of EGFR exon 20 insertion mutations, in healthy participants” (Investigational New Drugs, 2024).
Entries after “also recorded” stand apart in the source; their conditions may differ.

Tests used:
[1] = tested on: platinum-pretreated EGFRex20ins mutation positive locally advanced or metastatic NSCLC; parameters: method as in PMID 34647988; settings: 114 patients, mobocertinib 160 mg orally qd; cited from earlier work
[2] = Safety assessments (adverse events) in healthy participants; assay type: in vivo, human
Description: Safety was evaluated based on the incidence and severity of AEs and changes from baseline in clinical laboratory results, vital signs, and ECG parameters. AEs were graded according to Common Terminology Criteria for Adverse Events version 5.0.

[3] = Period 1 absolute bioavailability study: plasma PK after IV microdose of [14C]-mobocertinib; assay type: in vivo, human
Description: This was a two-period, open-label, single-dose phase 1 study (NCT03811834) conducted at one clinical site (Celerion, Lincoln, Nebraska, USA) in healthy male participants. The primary objective of Period 1 was to determine the absolute bioavailability of mobocertinib following a single oral dose of 160 mg mobocertinib as capsules and a single intravenous (IV) microdose of 50 µg (~ 2 µCi) [^14C]-mobocertinib. The primary objectives of Period 2 were to (1) assess the cumulative excretion of total radioactivity in urine and feces (mass balance); (2) assess the metabolite profile of mobocertinib in plasma, urine, and feces; and (3) characterize the PK of mobocertinib, AP32960, and AP32914 in plasma, whole blood, and urine, and total radioactivity concentration equivalents in plasma and whole blood following a single oral dose of 160 mg (~ 100 µCi) [^14C]-mobocertinib as an oral solution. A sample size of 6 healthy males was selected without statistical considerations and deemed adequate to meet the study objectives. Furthermore, the sample size was limited based on clinical considerations for human ADME studies and to limit exposure to radioactivity.
On Day 1 of Period 1, following an overnight fast of at least 10 h, participants received a single 160 mg dose of non-radiolabeled mobocertinib as capsules. At 3.75 h post oral dosing (i.e., 15 min before the median oral tmax of ~ 4 h), participants received a nominal dose of 50 µg (~ 2 µCi) [^14C]-mobocertinib as a 15-minute IV infusion. However, due to nonspecific binding of [^14C]-mobocertinib to the dosing syringe and tubing, actual doses administered ranged from 36.8 to 38.7 µg (1.47 to 1.55 µCi). Participants were required to stay in the clinic from Day − 1 through at least the 96-hour blood draw (Day 5) or until a discharge criterion was met (i.e., ≥ 80% of the total administered radioactive dose was recovered in urine and fecal samples or excretion of radioactivity in urine and feces combined had declined to ≤ 1% of the total administered dose per day for ≥ 2 consecutive intervals), up to a maximum of 7 days postdose (Day 8). Blood samples for the measurement of plasma mobocertinib, AP32960, and AP32914 concentrations were collected predose and at 0.5, 1, 2, 3, 4, 5, 6, 8, 12, 24, 36, 48, 72, and 96 h after oral administration. Additional blood samples to determine [^14C]-total radioactivity, [^14C]-mobocertinib, [^14C]-AP32960, and [^14C]-AP32914 in plasma were collected at 3.75 h after oral dosing (i.e., predose for [^14C] assessments), at the end of the IV infusion, and at 10, 20, and 30 min, and 1, 2, 4, 8, 20, 32, 44, 68, and 92 h after the end of infusion. […] Urine and feces were collected before oral dosing (− 48–0 h); urine was collected over 0–3.75 h, 3.75–12 h and 12–24 h after oral dosing; feces were collected from 0 to 3.75 h and 3.75–24 h after oral dosing; both urine and feces were then collected over 24-hour intervals until a discharge criterion was met, or up to Day 8 (168 h postdose).
Plasma, whole blood, and urine samples were assayed for mobocertinib, AP32960, and AP32914 concentrations using liquid chromatography-tandem mass spectrometry (Q2 Solutions, Ithaca, New York, USA). The analytical range for each analyte was 0.250 to 500 ng/mL in whole blood and plasma, and 1.00 to 1000 ng/mL in urine. […] Urine and fecal samples were assayed for total radioactivity following the IV dose of [^14C]-mobocertinib in Period 1, and whole blood, plasma, urine, and fecal samples were assayed for total radioactivity following the oral dose of [^14C]-mobocertinib in Period 2 using liquid scintillation counting (LSC; Celerion, Lincoln, Nebraska, USA; LLOQs: Period 1 urine: 0.115–0.118 ng eq/g, feces: 0.720–0.759 ng eq/g; Period 2 whole blood: 87.3–112 ng eq/g, plasma: 116–132 ng eq/mL, urine: 37.8–46.8 ng eq/g, feces: 110–336 ng eq/g across participants). […]

[4] = Period 1, IV infusion 50 µg [14C]-mobocertinib, geometric mean (geometric CV%)
[5] = Period 1, IV infusion 50 µg [14C]-mobocertinib, normalized to a 160 mg dose, geometric mean (geometric CV%)

Compound	median duration of response [1]	median overall survival [1]	median progression-free survival [1]	objective response rate per independent-review committee [1]	deaths or serious AEs ([2]; 7 healthy male participants, Periods 1 and 2)	severity of AEs ([2]; CTCAE version 5.0, both treatment periods)	participants who experienced at least 1 AE ([2]; Period 1)	participants who experienced at least 1 AE ([2]; Period 2)	overall safety and tolerability ([2]; both treatment periods)	incidence of most common AEs (constipation, diarrhea, and nausea, each) ([2]; each in 2 of 7 participants)	discontinuation because of AEs ([2]; eructation, nausea, salivary hypersecretion, vomiting on Day 1 of Period 1)	participants who experienced at least 1 AE ([2]; of 7 participants, whole study)	tmax ([3]; Period 1, 15-min IV infusion 50 µg (~2 µCi) [14C]-mobocertinib, median (range))	CL/F (after IV administration, values represent CL) [3, 4]	Vz/F (after IV administration, values represent Vz) [3, 4]	t1/2z [3, 4]	AUC∞ [3, 5]	Cmax [3, 5]
C=CC(=O)Nc1cc(Nc2ncc(C(=O)OC(C)C)c(-c3cn(C)c4ccccc34)n2)c(OC)cc1N(C)CCN(C)C [Mobocertinib]	17.5 months	24.0 months	7.3 months	28%	no deaths or serious AEs	grade 1 (mild)	6	4	generally safe and well-tolerated; also recorded: no new safety signals observed	29%	One participant discontinued the study early because of multiple AEs	7						
[^14C]-mobocertinib													0.26 (0.26–1.25) h	55.9 (30.0) L/h	1791 (45.3) L	22.2 (41.3) h	2864 (30.0) ng*h/mL	624.9 (43.6) ng/mL
